# Data as given in patent US11919965B2, “Methods of treating multiple myeloma with bispecific anti-BCMA x anti-CD3 antibodies” (Regeneron Pharmaceuticals, Inc., priority 2019, dated 2024).
# Where two headings read alike, the source gives them in different places.
# Experiments:
# [1] = system: BCMA-expressing NCI-H929 multiple myeloma tumors; assay: Xenogenic tumor model, NCI-H929 + human PBMC s.c. in NSG mice, dose response, treatment from implantation (Example 11); format: in vivo, mouse
# Description: To determine the in vivo efficacy of anti-BCMA×anti-CD3 bispecific antibodies (Abs), a xenogenic tumor study was performed. Immunodeficient NOD.Cg-Prkdc^ScidII2rg^tm1Wjl/SzJ (NSG) mice were subcutaneously implanted with a mixture of 10×10^6 BCMA-expressing NCI-H929 human multiple myeloma tumor cells and 0.5×10^6 human peripheral blood mononuclear cells (PBMC) isolated from a normal, healthy donor. […] The mice were administered these Abs twice per week for a total of seven doses, and tumor growth was assessed over 60 days. While BCMA+NCI-H929 tumors grew similarly in the vehicle- and CD3-binding control-treated mice, both anti-BCMA×anti-CD3 Abs that were tested prevented the growth of tumors in a dose-dependent manner in vivo.
# (§1) Implantation and measurement of xenogenic tumors: NSG mice were subcutaneously implanted with a mixture of 10×10^6 BCMA-expressing NCI-H929 multiple myeloma cells and 0.5×10^6 PBMC derived from a normal, healthy donor. […] The mice were administered Abs twice per week for a total of seven doses. Tumor growth was measured with calipers twice per week for the duration of the experiment.
# (§2) Calculation of xenogenic tumor growth and inhibition: In order to determine tumor volume by external caliper, the greatest longitudinal diameter (length in mm) and the greatest transverse diameter (width in mm) were determined. Tumor volumes based on caliper measurements were calculated by the formula: Volume (mm^3)=(length× width^2)/2.
# [2] = system: established BCMA-expressing NCI-H929 multiple myeloma tumors; assay: Xenogenic tumor model, established NCI-H929 tumors + human PBMC in NSG mice, treatment from day 5 (Example 12); format: in vivo, mouse; conditions: for Average Tumor Size (mm3) ± SEM on Day 5: day of first dose
# Description: To determine the in vivo efficacy of anti-BCMA×anti-CD3 bispecific antibodies (Abs), a xenogenic tumor study was performed. Immunodeficient NOD.Cg-Prkdc^scidII2rg^tm1Wjl/SzJ (NSG) mice were subcutaneously implanted with a mixture of 10×10^6 BCMA-expressing NCI-H929 human multiple myeloma tumor cells and 0.5×10^6 human peripheral blood mononuclear cells (PBMC) isolated from a normal, healthy donor. The tumors were allowed to grow and establish for 5 days until they were approximately 70 mm^3 in size. […] The mice were administered these Abs twice per week for a total of seven doses, and tumor growth was assessed over 55 days.
# as §1, with “donor. The tumors were allowed to grow and establish for 5 days until they were approximately 70 mm^3 in size.” for “donor.”
# as §2
# [3] = system: primary multiple myeloma blast cells; assay: FACS cytotoxicity assay, autologous T cell-mediated killing of primary multiple myeloma blast cells; format: cell-based, human; conditions: for EC50: read-out: MM Lysis EC50
# Description: In order to monitor the specific killing of multiple myeloma cells by flow cytometry, bone marrow mononuclear cells (BMMC) from multiple myeloma patients were plated on human stromal cells (HS5) and rested overnight at 37 C. Separately, matching patient peripheral blood mononuclear cells (PBMC) were thawed and cultured in supplemented RPMI media at 1×10^6 cells/mL overnight at 37° C. in order to enrich for lymphocytes by depleting adherent cells. The next day, BMMC were co-incubated with adherent cell-depleted naïve PBMC on stromal cells (HS5) and a serial 10× dilution of BCMA×CD3 bispecific or 1-arm CD3 isotype control (starting concentration 66.7 nM) at 37° C. Cells were removed from cell culture plates at day 3, 4 or 7 and analyzed by FACS. For the assessment of specificity of killing, multiple myeloma cells were gated as single, live, CD90 negative (to exclude stromal cells), CD2 negative, CD56 positive. CD45 was low on multiple myeloma cells in most samples except MM455. Percent of live target cells was reported for the calculation of adjusted survival as follows: Adjusted survival=(R1/R2)*100, where R1=% live target cells in the presence of antibody, and R2=% live target cells in the absence of test antibody.
# T cells were gated as CD2 positive, CD56 negative and either CD4 or CD8 positive. T cell activation was reported as the percent of CD25+CD4 or CD8 T cells out of total CD4 or CD8 T cells.
substance,measurement,setting,value
"REGN5459: anti-BCMA×anti-CD3 bispecific antibody: mAb21581 BCMA heavy chain, mAb7221G20 CD3 heavy chain and common light chain; SEQ ID NOs 126, 128, 129",Average Tumor Size (mm3) ± SEM on Day 4,[1]; 0.04 mg/kg,33.0 ± 4.4 mm3
same,Average Tumor Size (mm3) ± SEM on Day 7,[1]; 0.04 mg/kg,8.4 ± 4.0 mm3
same,Average Tumor Size (mm3) ± SEM on Day 12,[1]; 0.04 mg/kg,0 ± 0 mm3
same,Average Tumor Size (mm3) ± SEM on Day 19,[1]; 0.04 mg/kg,23.1± 23.1 mm3
same,Average Tumor Size (mm3) ± SEM on Day 22,[1]; 0.04 mg/kg,69.5 ± 69.5 mm3
same,Average Tumor Size (mm3) ± SEM on Day 26,[1]; 0.04 mg/kg,156.7 ± 156.7 mm3
same,Average Tumor Size (mm3) ± SEM on Day 29,[1]; 0.04 mg/kg,226.6 ± 226.6 mm3
same,Average Tumor Size (mm3) ± SEM on Day 4,[1]; 0.4 mg/kg,19.6 ± 4.4 mm3
same,Average Tumor Size (mm3) ± SEM on Day 12,[1]; 0.4 mg/kg,0 ± 0 mm3
same,Average Tumor Size (mm3) ± SEM on Day 15,[1]; 0.4 mg/kg,0 ± 0 mm3
same,Average Tumor Size (mm3) ± SEM on Day 19,[1]; 0.4 mg/kg,0 ± 0 mm3
same,Average Tumor Size (mm3) ± SEM on Day 22,[1]; 0.4 mg/kg,0 ± 0 mm3
same,Average Tumor Size (mm3) ± SEM on Day 26,[1]; 0.4 mg/kg,0 ± 0 mm3
same,Average Tumor Size (mm3) ± SEM on Day 29,[1]; 0.4 mg/kg,0 ± 0 mm3
same,Average Tumor Size (mm3) ± SEM on Day 34,[1]; 0.4 mg/kg,0 ± 0 mm3
same,Average Tumor Size (mm3) ± SEM on Day 39,[1]; 0.4 mg/kg,0 ± 0 mm3
same,Average Tumor Size (mm3) ± SEM on Day 42,[1]; 0.4 mg/kg,0 ± 0 mm3
same,Average Tumor Size (mm3) ± SEM on Day 46,[1]; 0.4 mg/kg,0 ± 0 mm3
same,Average Tumor Size (mm3) ± SEM on Day 55,[1]; 0.4 mg/kg,0 ± 0 mm3
same,Average Tumor Size (mm3) ± SEM on Day 60,[1]; 0.4 mg/kg,0 ± 0 mm3
same,Average Tumor Size (mm3) ± SEM on Day 4,[1]; 4 mg/kg,21.8 ± 3.4 mm3
same,Average Tumor Size (mm3) ± SEM on Day 7,[1]; 4 mg/kg,8.0 ± 4.3 mm3
same,Average Tumor Size (mm3) ± SEM on Day 12,[1]; 4 mg/kg,1.7 ± 1.7 mm3
same,Average Tumor Size (mm3) ± SEM on Day 15,[1]; 4 mg/kg,0 ± 0 mm3
same,Average Tumor Size (mm3) ± SEM on Day 19,[1]; 4 mg/kg,0 ± 0 mm3
same,Average Tumor Size (mm3) ± SEM on Day 22,[1]; 4 mg/kg,0 ± 0 mm3
same,Average Tumor Size (mm3) ± SEM on Day 26,[1]; 4 mg/kg,0 ± 0 mm3
same,Average Tumor Size (mm3) ± SEM on Day 29,[1]; 4 mg/kg,0 ± 0 mm3
same,Average Tumor Size (mm3) ± SEM on Day 34,[1]; 4 mg/kg,0 ± 0 mm3
same,Average Tumor Size (mm3) ± SEM on Day 39,[1]; 4 mg/kg,0 ± 0 mm3
same,Average Tumor Size (mm3) ± SEM on Day 42,[1]; 4 mg/kg,0 ± 0 mm3
same,Average Tumor Size (mm3) ± SEM on Day 46,[1]; 4 mg/kg,0 ± 0 mm3
same,Average Tumor Size (mm3) ± SEM on Day 55,[1]; 4 mg/kg,0 ± 0 mm3
same,Average Tumor Size (mm3) ± SEM on Day 60,[1]; 4 mg/kg,0 ± 0 mm3
same,Average Tumor Size (mm3) ± SEM on Day 8,[2]; 0.04 mg/kg,152.3 ± 20.0 mm3
same,Average Tumor Size (mm3) ± SEM on Day 12,[2]; 0.04 mg/kg,462.5 ± 57.7 mm3
same,Average Tumor Size (mm3) ± SEM on Day 15,[2]; 0.04 mg/kg,1094.2 ± 78.9 mm3
same,Average Tumor Size (mm3) ± SEM on Day 19,[2]; 0.04 mg/kg,2412.5 ± 184.6 mm3
same,Average Tumor Size (mm3) ± SEM on Day 22,[2]; 0.04 mg/kg,3285.9 ± 227.3 mm3
same,Average Tumor Size (mm3) ± SEM on Day 5,[2]; 0.04 mg/kg,74.9 ± 6.4 mm3
same,Average Tumor Size (mm3) ± SEM on Day 8,[2]; 0.4 mg/kg,171.9 ± 23.2 mm3
same,Average Tumor Size (mm3) ± SEM on Day 12,[2]; 0.4 mg/kg,233.8 ± 63.5 mm3
same,Average Tumor Size (mm3) ± SEM on Day 15,[2]; 0.4 mg/kg,327.2 ± 135.6 mm3
same,Average Tumor Size (mm3) ± SEM on Day 19,[2]; 0.4 mg/kg,606.2 ± 288.8 mm3
same,Average Tumor Size (mm3) ± SEM on Day 22,[2]; 0.4 mg/kg,815.4 ± 387.1 mm3
same,Average Tumor Size (mm3) ± SEM on Day 27,[2]; 0.4 mg/kg,1849.9 ± 903.1 mm3
same,Average Tumor Size (mm3) ± SEM on Day 30,[2]; 0.4 mg/kg,661.8 ± 490.1 mm3
same,Average Tumor Size (mm3) ± SEM on Day 35,[2]; 0.4 mg/kg,996.8 ± 771.0 mm3
same,Average Tumor Size (mm3) ± SEM on Day 40,[2]; 0.4 mg/kg,375.6 ± 375.6 mm3
same,Average Tumor Size (mm3) ± SEM on Day 55,[2]; 0.4 mg/kg,0 ± 0 mm3
same,Average Tumor Size (mm3) ± SEM on Day 5,[2]; 0.4 mg/kg,69.5 ± 4.1 mm3
same,Average Tumor Size (mm3) ± SEM on Day 8,[2]; 4 mg/kg,45.8 ± 9.8 mm3
same,Average Tumor Size (mm3) ± SEM on Day 15,[2]; 4 mg/kg,0 ± 0 mm3
same,Average Tumor Size (mm3) ± SEM on Day 19,[2]; 4 mg/kg,0 ± 0 mm3
same,Average Tumor Size (mm3) ± SEM on Day 22,[2]; 4 mg/kg,0 ± 0 mm3
same,Average Tumor Size (mm3) ± SEM on Day 27,[2]; 4 mg/kg,0 ± 0 mm3
same,Average Tumor Size (mm3) ± SEM on Day 30,[2]; 4 mg/kg,0 ± 0 mm3
same,Average Tumor Size (mm3) ± SEM on Day 35,[2]; 4 mg/kg,0 ± 0 mm3
same,Average Tumor Size (mm3) ± SEM on Day 40,[2]; 4 mg/kg,0 ± 0 mm3
same,Average Tumor Size (mm3) ± SEM on Day 55,[2]; 4 mg/kg,0 ± 0 mm3
same,Average Tumor Size (mm3) ± SEM on Day 5,[2]; 4 mg/kg,61.8 ± 5.2 mm3
same,EC50,"[3]; Sample MM2, E:T 1.4, 7 days",7.24 nM
same,% MM lysis at 66 nM,"[3]; Sample MM2, newly diagnosed, E:T 1.4, 7 days",85%
same,EC50,"[3]; Sample MM369, E:T 0.3, 3 days",0.496 nM
same,% MM lysis at 66 nM,"[3]; Sample MM369, newly diagnosed, E:T 0.3, 3 days",94%
same,EC50,"[3]; Sample MM453, E:T 2.4, 3 days",1.19 nM
same,% MM lysis at 66 nM,"[3]; Sample MM453, newly diagnosed, E:T 2.4, 3 days",80%
same,EC50,"[3]; Sample MM455, E:T 0.4, 3 days",79.4 nM
same,% MM lysis at 66 nM,"[3]; Sample MM455, progression, treated, E:T 0.4, 3 days",52%
